Test results as given in patent publication US3965139A, “2-Chloro-N-(cyanomethyl)acetanilides” (Diamond Shamrock Corporation, priority 1974, dated 1976).

Key:
Prickly Sida = assay: Field Preemergence Test, light sandy soil; format: in vivo; settings: 3-4 weeks after planting
Text: (§1) Test plots of fertilized, light sandy soil containing 0.7% organic matter are sprayed uniformly with aqueous suspensions prepared from an emulsifiable concentrate containing 12%, by weight, of 2-chloro-N-cyanomethyl-2',6'-diethylacetanilide (the product of Example 1) diluted to provide dosage rates of the test compound corresponding to 2, 1, 0.5, and 0.25 pound per acre (lb/A). The plots are then sown with seeds of the following crop plants: sweet corn, cotton (Coker 413), and soybeans, var. Davis. Seeds of the following weed plants are planted: redroot pigweed, prickly sida, and common lambsquarter (broadleaf species); goosegrass and giant foxtail (grass species).
(§2) Three to four weeks after planting, percent control (plant kill) of the test plants is estimated, from a rating of 0 which denotes no injury to the plant up to 100 which denotes complete destruction. The % weed control exerted by 2-chloro-N-cyanomethyl-2',6'-diethylacetanilide is as follows: […]

Redroot Pigweed = assay: Field Preemergence Test, light sandy soil; format: in vivo; settings: 3-4 weeks after planting
Text: as §1, §2

Giant Foxtail = assay: Field Preemergence Test, light sandy soil; format: in vivo; settings: 3-4 weeks after planting
Text: as §1, §2

Goosegrass = assay: Field Preemergence Test, light sandy soil; format: in vivo; settings: 3-4 weeks after planting
Text: as §1, §2

Corn [1] = assay: Preemergence test in loam-type heavier soil, crop; format: in vivo; settings: for % Control of Plant Growth, Corn: about three weeks after planting, loam-type heavier soil
grass species [2] = assay: Preemergence test in loam-type heavier soil, grasses overall; format: in vivo, Johnson grass and yellow foxtail; settings: 1-2 lb/A; heavy soil
Text: (§3) This example illustrates the performance of 2-chloro-N-cyanomethyl-2',6'-diethylacetanilide in a different type soil than employed in the previous example. For this test, test plots of a loam-type, heavier soil containing 5.5% organic matter are sprayed uniformly with formulations of the test compound providing dosage rates of 4, 2, and 1 pound per acre (lb/A). The plots are then sown to cotton and soybeans and with seeds of the broadleaf, redroot pigweed, and the grasses, Johnson grass and yellow foxtail, as indicator weed plants.
(§4) Approximately three weeks after planting, the test plots are examined and percent control of plant growth is rated from 0% to 100% as previously described.

Yellow Foxtail = assay: Preemergence test in loam-type heavier soil, weed; format: in vivo; settings: about three weeks after planting
Text: as §3, §4

broadleaf species [3] = assay: Preemergence test in loam-type heavier soil, broadleaf species; format: in vivo, redroot pigweed; settings: 1-2 lb/A; heavy soil
Text: as §3, §4

grass species [4] = assay: Greenhouse Preemergence Herbicide Test, grass species; format: in vivo; settings: two weeks after treatment
Procedure: To illustrate the preemergence herbicidal efficiency of the N-(cyanomethyl)acetanilides of this invention, test formulations are prepared of representative compounds by mixing 20 ml of an acetone solution containing 0.125 g of the test compound with 20 ml of water containing 0.01 g of Triton X-155 surfactant. The resultant formulations contain 3125 ppm of test compound, 50% by volume of acetone and 0.025% by weight of surfactant. Appropriate lower concentrations are obtained by diluting this formulation with surfactant-acetone solution so that the concentration of adjuvants is maintained at the original levels.
Seeds of three broadleaf and three grass species are planted in soil contained in 10 × 8 × 3 inch aluminum pans filled with 1.5 inches of composted soil. The broadleaf species are pigweed (Amaranthus retroflexus), a velvetleaf (Abutilon theophrasti), and morningglory (Ipomea coccinea); the grasses are red millet (Panicum milliacem), greenfoxtail (Setaria viridis) and Japanese millet (Echinochloa frumentacea).
The pans are then sprayed so that the soil surface is uniformly covered with dilutions of the stock formulation providing dosage rates of the test compounds corresponding to 8, 4, 2, 1, 0.5, and 0.25 lb/A. Two weeks after treatment, percent control (plant kill) at each dosage rate is estimated. The lowest concentration of each compound (lb/A) found to provide 50% or greater control of the grass weeds is as follows: […]

Cotton = assay: Field Preemergence Test, phytotoxic effects on crop; format: in vivo, cotton (Coker 413); settings: light sandy soil; for % Crop Kill, Cotton: 3-4 weeks after planting
Text: as §1
(§5) Three to four weeks after planting, percent control (plant kill) of the test plants is estimated, from a rating of 0 which denotes no injury to the plant up to 100 which denotes complete destruction. The % weed control exerted by 2-chloro-N-cyanomethyl-2',6'-diethylacetanilide is as follows:
(§6) Phytotoxic effects observed on the crop species is estimated with results as follows: […]

grassy-type weeds = assay: Field Preemergence Test, light sandy soil, grasses overall; format: in vivo, goosegrass and giant foxtail
Text: as §1, §2

Lambsquarter = assay: Field Preemergence Test, light sandy soil; format: in vivo, common lambsquarter; settings: 3-4 weeks after planting
Text: as §1, §2

Corn [5] = assay: Field Preemergence Test, phytotoxic effects on crop; format: in vivo, sweet corn; settings: light sandy soil; for % Crop Kill, Corn: 3-4 weeks after planting
Text: as §1, §5, §6

Johnsongrass = assay: Preemergence test in loam-type heavier soil, weed; format: in vivo, Johnson grass; settings: about three weeks after planting
Text: as §3, §4

Pigweed = assay: Preemergence test in loam-type heavier soil, weed; format: in vivo, redroot pigweed; settings: about three weeks after planting
Text: as §3, §4

broadleaf species [6] = assay: Field Preemergence Test, light sandy soil, broadleaf species overall; format: in vivo, redroot pigweed, prickly sida, common lambsquarter
Text: as §1, §2

Soybeans [7] = assay: Preemergence test in loam-type heavier soil, crop; format: in vivo; settings: for % Control of Plant Growth, Soybeans: about three weeks after planting, loam-type heavier soil
Text: as §3, §4

Soybeans [8] = assay: Field Preemergence Test, phytotoxic effects on crop; format: in vivo, var. Davis; settings: light sandy soil; for % Crop Kill, Soybeans: 3-4 weeks after planting
Text: as §1, §5, §6

## CCc1cccc(CC)c1N(CC#N)C(=O)CCl [Example 1, 2-chloro-N-cyanomethyl-2',6'-diethylacetanilide]
Prickly Sida; 0.25 lb/A
  % Weed Control, Prickly Sida: 0%
Prickly Sida; 0.5 lb/A
  % Weed Control, Prickly Sida: 0%
Prickly Sida; 1 lb/A
  % Weed Control, Prickly Sida: 12%
Prickly Sida; 2 lb/A
  % Weed Control, Prickly Sida: 40%
Redroot Pigweed; 0.25 lb/A
  % Weed Control, Redroot Pigweed: 0%
Redroot Pigweed; 0.5 lb/A
  % Weed Control, Redroot Pigweed: 33%
Redroot Pigweed; 1 lb/A
  % Weed Control, Redroot Pigweed: 55%
Redroot Pigweed; 2 lb/A
  % Weed Control, Redroot Pigweed: 90%
Giant Foxtail; 0.25 lb/A
  % Weed Control, Giant Foxtail: 0%
Giant Foxtail; 0.5 lb/A
  % Weed Control, Giant Foxtail: 27%
Giant Foxtail; 1 lb/A
  % Weed Control, Giant Foxtail: 65%
Giant Foxtail; 2 lb/A
  % Weed Control, Giant Foxtail: 82%
Goosegrass; 0.25 lb/A
  % Weed Control, Goosegrass: 63%
Goosegrass; 0.5 lb/A
  % Weed Control, Goosegrass: 88%
Goosegrass; 1 lb/A
  % Weed Control, Goosegrass: 95%
Goosegrass; 2 lb/A
  % Weed Control, Goosegrass: 99%
Corn [1]; 1-2 lb/A, heavy soil
  injury to corn stand: noninjurious
Corn [1]; 1 lb/A
  % Control of Plant Growth, Corn: 0%
Corn [1]; 2 lb/A
  % Control of Plant Growth, Corn: 0%
Corn [1]; 4 lb/A
  % Control of Plant Growth, Corn: 10%
Grass species [2]
  selectivity for controlling the grass species: selective for controlling the grass species
Yellow Foxtail; 1 lb/A
  % Control of Plant Growth, Yellow Foxtail: 90%
Yellow Foxtail; 2 lb/A
  % Control of Plant Growth, Yellow Foxtail: 95%
Yellow Foxtail; 4 lb/A
  % Control of Plant Growth, Yellow Foxtail: 95%
Broadleaf species [3]
  activity for controlling the broadleaf species: no activity
Grass species [4]
  Minimum Dosage Providing at Least 50% Preemergence Control of Grass Species: 0.50 lb/A
Cotton; 1 lb/A
  % Crop Kill, Cotton: 0%
Cotton; 2 lb/A
  % Crop Kill, Cotton: 3%
  phytotoxicity effects on cotton: minimal phytotoxicity effects
grassy-type weeds
  control of grassy-type weeds: good control
Lambsquarter; 0.25 lb/A
  % Weed Control, Lambsquarter: 0%
Lambsquarter; 0.5 lb/A
  % Weed Control, Lambsquarter: 20%
Lambsquarter; 1 lb/A
  % Weed Control, Lambsquarter: 60%
Lambsquarter; 2 lb/A
  % Weed Control, Lambsquarter: 88%
Corn [5]; 1 lb/A
  % Crop Kill, Corn: 0%
Corn [5]; 2 lb/A
  % Crop Kill, Corn: 0%
  tolerance of corn: tolerant
Johnsongrass; 1 lb/A
  % Control of Plant Growth, Johnsongrass: 60%
Johnsongrass; 2 lb/A
  % Control of Plant Growth, Johnsongrass: 80%
Johnsongrass; 4 lb/A
  % Control of Plant Growth, Johnsongrass: 80%
Pigweed; 1 lb/A
  % Control of Plant Growth, Pigweed: 0%
Pigweed; 2 lb/A
  % Control of Plant Growth, Pigweed: 0%
Pigweed; 4 lb/A
  % Control of Plant Growth, Pigweed: 40%
Broadleaf species [6]; 1-2 lb/A
  broadleaf weed control in a light, sandy soil: good broadleaf weed control
Broadleaf species [6]; 2 lb/A
  herbicidal activity against two of the broadleaf species: significant herbicidal activity
Soybeans [7]; 1-2 lb/A, heavy soil
  injury to soybean stand: noninjurious
Soybeans [7]; 1 lb/A
  % Control of Plant Growth, Soybeans: 0%
Soybeans [7]; 2 lb/A
  % Control of Plant Growth, Soybeans: 0%
Soybeans [7]; 4 lb/A
  % Control of Plant Growth, Soybeans: 5%
Soybeans [8]; 1 lb/A
  % Crop Kill, Soybeans: 0%
Soybeans [8]; 2 lb/A
  % Crop Kill, Soybeans: 0%
  tolerance of soybeans: tolerant

## CC(C)c1ccccc1N(CC#N)C(=O)CCl [Example 11, 2-chloro-N-cyanomethyl-2'-isopropylacetanilide]
Grass species [4]
  Minimum Dosage Providing at Least 50% Preemergence Control of Grass Species: 1.00 lb/A

## CC(C)c1cccc(C(C)C)c1N(CC#N)C(=O)CCl [Example 12, 2-chloro-N-cyanomethyl-2',6'-diisopropylacetanilide]
Grass species [4]
  Minimum Dosage Providing at Least 50% Preemergence Control of Grass Species: 0.50 lb/A

## N#CCN(C(=O)CCl)c1ccccc1Br [Example 15, 2'-bromo-2-chloro-N-(cyanomethyl)acetanilide]
Grass species [4]
  Minimum Dosage Providing at Least 50% Preemergence Control of Grass Species: 1.00 lb/A

## COc1ccccc1N(CC#N)C(=O)CCl [Example 13, 2-chloro-N-cyanomethyl-2'-methoxyacetanilide]
Grass species [4]
  Minimum Dosage Providing at Least 50% Preemergence Control of Grass Species: 0.50 lb/A

## Cc1cccc(N(CC#N)C(=O)CCl)c1 [Example 8, 2-chloro-N-cyanomethyl-3'-methylacetanilide]
Grass species [4]
  Minimum Dosage Providing at Least 50% Preemergence Control of Grass Species: 0.50 lb/A

## N#CCN(C(=O)CCl)c1ccccc1Cl [Example 9, 2,2'-dichloro-N-(cyanomethyl)acetanilide]
Grass species [4]
  Minimum Dosage Providing at Least 50% Preemergence Control of Grass Species: 0.50 lb/A

## Cc1cccc(C)c1N(CC#N)C(=O)CCl [Example 10, 2-chloro-N-cyanomethyl-2',6'-dimethylacetanilide]
Grass species [4]
  Minimum Dosage Providing at Least 50% Preemergence Control of Grass Species: 0.25 lb/A

## CCc1ccccc1N(CC#N)C(=O)CCl [Example 14, 2-chloro-N-cyanomethyl-2'-ethylacetanilide]
Grass species [4]
  Minimum Dosage Providing at Least 50% Preemergence Control of Grass Species: 0.50 lb/A
